The subject of experiment [1] is cellulite-affected skin. Briefly: topical treatment of cellulite-affected skin on thighs and buttocks of female persons by gliding a solid salt block. The format is in vivo, human.
The test system of experiment [2] is cellulite-affected skin. As to the kind of experiment: topical treatment of cellulite-affected skin on the sides of a test subject by gliding a solid salt block. To be noted: person. The format is in vivo, human. From the text: […] This person may be a afflicted with cellulite on their sides, between their armpits and their waist.
Rather, […] sides are left moistened. Then, […] areas of his sides, by very gently gliding the block in dabbing motions, circular motions, up and down motions, or zigzag motions (the motions being insufficient to cause debridement and abrasion of the affected skin) on the moistened areas for about 15 to about 30 seconds. […]
This once daily application is continued for 5 weeks.

Consider `[Cl-].[Na+]` [NaCl, sodium chloride], for which the “state of cellulite on continued application” value in the experiment with cellulite-affected skin [1] (female, continued once per day application after 5 weeks) was “remained free of cellulite”; in the experiment with cellulite-affected skin [2] (continued once per day application after 5 weeks) it was “remain smooth and free of cellulite”. Also, in the experiment on cellulite-affected skin [1] (person, pre-moistened skin, once daily application for about 15 to 30 seconds, end of 2 weeks), the “state of cellulite at the end of 2 weeks” value is “alleviated”. For the same compound, the “state of cellulite at the end of 5 weeks” value with cellulite-affected skin [1] (person, pre-moistened skin, once daily application, end of 5 weeks) is on record as “completely eliminated”; in the experiment on cellulite-affected skin [2] (pre-moistened skin, once daily, end of 5 weeks) it was “completely eliminated”.
